This assay deals with T1, soluble guanylate cyclase (α1 and β1 subunits of guanylate cyclase, expressed in Sf9 cells) (Homo sapiens, UniProt Q02108+Q02153).
T1 construct: made in house; host or cells: Sf9 insect cells (baculovirus co-infection); high-speed supernatant used unpurified
T1 sequence (Q02108 1-690): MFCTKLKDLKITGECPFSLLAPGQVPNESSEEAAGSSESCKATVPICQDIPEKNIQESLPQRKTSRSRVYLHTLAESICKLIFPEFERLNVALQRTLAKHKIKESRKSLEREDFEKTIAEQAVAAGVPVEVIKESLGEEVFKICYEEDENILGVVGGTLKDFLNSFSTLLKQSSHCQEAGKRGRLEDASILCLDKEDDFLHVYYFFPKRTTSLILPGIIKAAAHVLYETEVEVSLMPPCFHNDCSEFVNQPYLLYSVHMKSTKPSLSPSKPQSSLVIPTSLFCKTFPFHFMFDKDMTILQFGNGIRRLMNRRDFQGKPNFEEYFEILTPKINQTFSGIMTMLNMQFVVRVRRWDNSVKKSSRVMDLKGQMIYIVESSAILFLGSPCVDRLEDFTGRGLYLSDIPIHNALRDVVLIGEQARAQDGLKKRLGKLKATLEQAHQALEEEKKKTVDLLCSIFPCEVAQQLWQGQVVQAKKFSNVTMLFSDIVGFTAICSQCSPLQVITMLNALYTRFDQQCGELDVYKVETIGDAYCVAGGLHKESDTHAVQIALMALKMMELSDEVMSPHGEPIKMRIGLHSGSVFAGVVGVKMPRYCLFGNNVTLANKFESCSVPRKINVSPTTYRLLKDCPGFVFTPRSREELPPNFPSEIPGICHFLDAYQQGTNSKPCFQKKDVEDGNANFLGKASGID
T1 sequence (Q02153 1-619): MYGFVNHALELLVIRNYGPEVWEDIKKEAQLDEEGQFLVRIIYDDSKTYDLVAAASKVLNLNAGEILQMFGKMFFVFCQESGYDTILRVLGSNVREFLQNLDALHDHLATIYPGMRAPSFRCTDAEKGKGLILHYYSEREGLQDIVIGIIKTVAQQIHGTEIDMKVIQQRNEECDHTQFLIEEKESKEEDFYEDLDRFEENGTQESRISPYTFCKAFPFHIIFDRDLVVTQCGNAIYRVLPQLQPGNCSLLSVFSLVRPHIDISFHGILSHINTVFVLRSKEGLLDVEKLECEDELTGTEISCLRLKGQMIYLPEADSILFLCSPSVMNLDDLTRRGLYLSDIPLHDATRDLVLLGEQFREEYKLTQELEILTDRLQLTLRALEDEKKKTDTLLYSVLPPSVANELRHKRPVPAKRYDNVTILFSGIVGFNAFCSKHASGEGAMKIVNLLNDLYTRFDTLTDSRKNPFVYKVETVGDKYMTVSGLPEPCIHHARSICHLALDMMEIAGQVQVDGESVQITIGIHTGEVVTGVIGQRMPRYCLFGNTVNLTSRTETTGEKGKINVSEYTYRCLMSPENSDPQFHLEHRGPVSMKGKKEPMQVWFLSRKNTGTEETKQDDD
Description: Guanylate Cyclase Assay (formation of cyclic GMP from GTP, with and without SNP). Format: biochemical. Conditions: compound at 100 μM without SNP; normalized with the activity of 100 μM YC-1 (without SNP) as 100%. As for the experimental part:
Sf9 cells were cultured in Sf-90011 medium supplemented with 10% (v/v) fetal calf serum at 28° C. to give a count of 6×10^5 cells/ml. The cells were then infected with a mixture of the virus stocks for the α1 and β1 subunits of guanylate cyclase at a multiplicity of infection of 0.1 pfu/cell. The cells were harvested 72 hours after infection and were pelleted by centrifugation. The resulting cell pellets were homogenized with Polytron homogenizer in 3 volumes of 20 mM Tris-HCl (pH 7.6) containing 1 mM EDTA, 5 mM dithiothreitol, 90 mM NaCl, 10% glycerol, and protease inhibitors mix (Roche Molecular Biochemicals). The homogenate was centrifuged at 50,000×g for 60 minutes and the supernatant was aliquotted and stored at −80° C. […]
Guanylate cyclase activity was measured by the formation of cyclic GMP from GTP in a total volume of 100 μl. […] The solution was centrifuged at 3000 rpm for 15 minutes at room temperature and cyclic GMP in 20 μl of the resulting supernatant was measured according to the protocol of Amersham cyclic GMP enzymeimmunoassay system (purchased from Sigma, catalogue number RPN 226).
Compounds of the present invention were tested at 100 μM with and without 1 μM sodium nitro prusside (SNP). […] Mean basal efficacy, in Table 1, was expressed as a percentage of 100 μM YC-1 (without SNP). […]

On to `CC(O)CCNC(=O)/C=C/c1ccccc1Sc1ccc(Cl)cc1` (stereo not shown) [Example 38, (2E)-3-{2-[(4-chlorophenyl)thio]pheny}-N-(3-hydroxybutyl)acrylamide], for which the “Mean basal efficacy of compound alone at 100 μM, [%]” value is recorded as 60%.

These data come from patent US20040192680A1, “Novel amides that activate soluble guanylate cyclase” (priority 2002, published 2004).
